Read-outs that look alike come from different tables or passages of the source.

For data set [1] the following is noted: human, in vivo.
The conditions of data set [2]: human, in vivo, 120 mg.
The conditions of data set [3]: background statement; cited from earlier work.
Data set [4] is described as follows: Plasma and brain concentrations after single oral dose in rats. The class given is in vivo. The conditions noted are these: both sexes, Sprague-Dawley, rat, rats plasma, suspension; for AUC(0-t): plasma, po. As for the experimental part: Both male (n=3) and female (n=3) Sprague-Dawley rats were administered a single dose of TQS-168 by oral gavage at 50, 150, or 500 mg/kg of TQS-168. TQS-168 was prepared as a suspension with 0.5% methylcellulose in PBS.
Plasma samples were collected at 30, 60, 120, 240, and 1440 minutes after administration. Brain samples were collected in some animals at 60, 240, and 1440 minutes after the single oral dose of TQS-168 at 500 mg/kg. Samples were processed for LC-MS analysis of TQS-168 concentrations.
Cmax and AUC0-t values from the plasma tissues were calculated using PKSolver (Compute Methods Programs Biomed. 2010 September; 99(3):306-14. doi: 10.1016j.cmpb.2010.01.007. Epub 2010 Feb. 21) with the underlying data plotted FIG. 12a.

Data set [5] in a line: Plasma concentrations after single intravenous dose in mice. The class given is in vivo. The conditions noted are these: male, CD-1, mouse, 0.5 mg/kg intravenous, read-out: Terminal elimination half life (converted). The protocol: Three male 7-9 week old male CD-1 mice from Lingchang were treated intravenously with 0.5 mg/kg of TQS-168. TQS-168 was prepared in solution of 31.6% DMAC+36.8% Ethanol+31.6% Propylene glycol. Blood was collected at 0.5, 3, 10, 30, 60, 120, 240, 480 and 720 minutes after a single dose of TQS-168 and then processed. Blood samples were collected via saphenous vein puncture into a K2EDTA tube, centrifuged at 4° C. at 4600 rpm for 5 minutes and plasma collected and stored at less than −20° C. prior to being analyzed by LC-MS for TQS-168 concentrations. Data are presented as concentration and mean concentration of TQS-168 per volume of plasma (ng/mL), as shown in FIG. 10 (individual mice) and FIG. 11 (average), respectively.

One may read the AUC(0-inf) as total exposure, with the tail of the curve extrapolated. Read a low AUC(0-inf) as low exposure. Usually Cmax stands for the highest concentration seen after dosing. By Tmax is commonly meant the time at which the peak concentration occurs. Turning to `CC(C)(C)c1ccc(-c2nc3cc(O)ccc3[nH]2)cc1` [TQS-621], in data set [1] (po, 60 mg), the “MPR AUC(0-inf)” value stood at 5.63 and the “MPR Cmax” value is given as 2.44. Moreover, in data set [1] (po, 90 mg), the “MPR AUC(0-inf)” value was found to be 6.16 and the “MPR Cmax” value is given as 1.93. Further, in data set [1] (po, 270 mg), the “MPR AUC(0-inf)” value was determined as 5.92 and the “MPR Cmax” value is 2.62. Besides, in data set [1] (po, 540 mg), the “MPR AUC(0-inf)” value came to 7.91 and the “MPR Cmax” value is 3.43. In data set [1] (male, 180 mg), the “Frel AUC(0-inf)” value worked out at 63.6%, the “Frel AUC(0-last)” value turned out to be 63.5% and the “Frel Cmax” value is given as 64.9%. Further, in data set [1] (male, po, 60 mg), the “AUC(0-24)” value was 383 ng·h/mL, the area under the curve AUC(0-inf) is 410 ng·h/mL, the Cmax is on record as 65.3 ng/mL and the T1/2 came out at 4.89 h. For the same molecule, the Tmax in data set [1] (male, po, 60 mg) amounted to 2.50 h. Moreover, in data set [1] (male, po, 90 mg), the “AUC(0-24)” value was found to be 1170 ng·h/mL, the total exposure AUC(0-inf) turned out to be 1200 ng·h/mL, the “AUC(0-last)” value came out at 1190 ng·h/mL and the Cmax is listed as 214 ng/mL. Besides, in data set [1] (male, po, 90 mg), the T1/2 stood at 4.79 h and the Tmax is 1.25 h. For the same molecule, in data set [1] (male, po, 270 mg), the “AUC(0-24)” value was determined as 4250 ng·h/mL, the “AUC(0-inf)” value was 4950 ng·h/mL, the maximum concentration (Cmax) is listed as 621 ng/mL and the T1/2 worked out at 10.4 h. Moreover, the time of peak concentration (Tmax) in data set [1] (male, po, 270 mg) worked out at 2.00 h. Further, in data set [1] (male, po, 540 mg), the “AUC(0-24)” value turned out to be 10800 ng·h/mL, the area under the curve AUC(0-inf) was determined as 12700 ng·h/mL, the Cmax was 1110 ng/mL and the T1/2 is on record as 11.3 h. Also, in data set [1] (male, po, 540 mg), the Tmax was 4.00 h. Further, in data set [2], the “AR AUC” value came to 1.46 and the “AR Cmax” value was 1.03. In data set [2] (male), the T1/2 is given as 10.2 h and the time to peak (Tmax) is 1.75 h. Also, in data set [2] (male, 7 days), the “accumulation ratio based on AUC(0-tau)” value is reported as 1.46 and the “accumulation ratio based on Cmax” value was found to be 1.30.
The term AUC(0-t) denotes the area under the concentration-time curve up to a stated or last time point. High values mean high exposure, low ones low exposure. By half-life is commonly meant how long it takes for the measured level to halve. Regarding `CC(C)(C)c1ccc(-c2nc3ccccc3[nH]2)cc1` [TQS-168, 2-(4-tert-butylphenyl)-1H-benzimidazole], the solubility result in data set [3] was “highly insoluble”. Further, the AUC(0-t) was found to be 833 ng·h/mL in data set [4] (50 mg/kg, 50 mg/kg single oral dose); 1830 ng·h/mL in data set [4] (150 mg/kg, 150 mg/kg single oral dose); 3330 ng·h/mL in data set [4] (500 mg/kg, 500 mg/kg single oral dose). Also, the Cmax worked out at 60 ng/mL in data set [4] (50 mg/kg single oral dose), 120 ng/mL in data set [4] (150 mg/kg single oral dose) and 170 ng/mL in data set [4] (500 mg/kg single oral dose). Moreover, in data set [5], the half-life was 8.4 min.

The values are drawn from patent US20250281462A1, “THERAPEUTICALLY EFFECTIVE ORAL ADMINISTRATION OF A 2 ARYLBENZIMIDAZOLE” (Tranquis Therapeutics, Inc., priority 2021, published 2025).
